Laboratory results from PubChem BioAssay (NCI).
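Values below derive from 48-hour exposures of cells grown in 96-well plates, with endpoints linearly interpolated between the two concentrations bracketing the appropriate inhibition level. GI50 is the concentration that inhibits growth by half. TGI is the concentration that stops growth completely.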

Key:
Assay in all cases: DTP human tumour cell line panel, 48 h
[1] = system: TK-10 renal
[2] = system: UACC-257 melanoma
[3] = system: PC-3 prostate
[4] = system: ACHN renal
[5] = system: SK-MEL-28 melanoma
[6] = system: UACC-62 melanoma
[7] = system: OVCAR-5 ovarian
[8] = system: DU-145 prostate
[9] = system: A549 NSCLC
[10] = system: HT29 colon
[11] = system: NCI/ADR-RES ovarian
[12] = system: SW-620 colon
[13] = system: UO-31 renal
[14] = system: SK-MEL-5 melanoma
[15] = system: MDA-MB-231 breast
[16] = system: A498 renal
[17] = system: SK-OV-3 ovarian
[18] = system: MDA-MB-435
[19] = system: 786-0 renal
[20] = system: M14 melanoma
[21] = system: NCI-H522 lung
[22] = system: MALME-3M melanoma
[23] = system: SF-539 CNS
[24] = system: OVCAR-4 ovarian
[25] = system: HS 578T breast
[26] = system: CAKI-1 renal
[27] = system: RPMI-8226 leukemia
[28] = system: HCC-2998 colon
[29] = system: IGROV1 ovarian
[30] = system: SK-MEL-2 melanoma
[31] = system: HOP-62 NSCLC
[32] = system: HCT-15 colon
[33] = system: LOX IMVI melanoma
[34] = system: COLO 205 colon
[35] = system: RXF 393 renal
[36] = system: U251 CNS
[37] = system: K-562 leukemia
[38] = system: HCT-116 colon
[39] = system: SNB-19 CNS
[40] = system: HOP-92 NSCLC
[41] = system: OVCAR-8 ovarian
[42] = system: MCF7 breast
[43] = system: KM12 colon
[44] = system: SNB-75 CNS
[45] = system: CCRF-CEM leukemia
[46] = system: NCI-H226 lung
[47] = system: SF-268 CNS
[48] = system: EKVX NSCLC
[49] = system: NCI-H460 lung
[50] = system: BT-549 breast
[51] = system: MOLT-4 leukemia
[52] = system: SN12C renal
[53] = system: SF-295 CNS

CCCc1n(Cc2ccc3ccccc3c2)c2ccccc2[n+]1Cc1ccc2ccccc2c1
GI50 [1]: 461 nM
TGI [1]: 1680 nM
GI50 [2]: 295 nM
TGI [2]: 1120 nM
GI50 [3]: 354 nM
TGI [3]: 1550 nM
GI50 [4]: 1250 nM
TGI [4]: 2570 nM
GI50 [5]: 577 nM
TGI [5]: 1990 nM
GI50 [6]: 318 nM
TGI [6]: 1420 nM
GI50 [7]: 544 nM
TGI [7]: 1980 nM
GI50 [8]: 554 nM
TGI [8]: 1850 nM
GI50 [9]: 619 nM
TGI [9]: 2040 nM
GI50 [10]: 323 nM
TGI [10]: 1280 nM
GI50 [11]: 3560 nM
TGI [11]: 53900 nM
GI50 [12]: 429 nM
TGI [12]: 1700 nM
GI50 [13]: 1490 nM
TGI [13]: 3000 nM
GI50 [14]: 161 nM
TGI [14]: 311 nM
GI50 [15]: 301 nM
TGI [15]: 1420 nM
GI50 [16]: 356 nM
TGI [16]: 1980 nM
GI50 [17]: 488 nM
TGI [17]: 1740 nM
GI50 [18]: 314 nM
TGI [18]: 1260 nM
GI50 [19]: 1060 nM
TGI [19]: 2560 nM

Cc1ccc(-c2c(C#N)c(-c3ccccc3)c(C#N)c(=O)n2NS(=O)(=O)c2ccc(C)cc2)cc1
TGI [20]: > 100000 nM
TGI [1]: > 100000 nM
TGI [21]: > 100000 nM
TGI [22]: > 100000 nM
TGI [23]: > 100000 nM
TGI [2]: > 100000 nM
TGI [24]: > 100000 nM
TGI [25]: > 100000 nM
TGI [3]: > 100000 nM
TGI [26]: > 100000 nM
TGI [27]: 8790 nM
TGI [28]: > 100000 nM
TGI [29]: > 100000 nM
TGI [4]: > 100000 nM
TGI [30]: > 100000 nM
TGI [5]: > 100000 nM
TGI [31]: > 100000 nM
TGI [32]: > 100000 nM
TGI [33]: > 100000 nM
TGI [6]: > 100000 nM
TGI [7]: > 100000 nM
TGI [34]: > 100000 nM
TGI [35]: > 100000 nM
TGI [36]: > 100000 nM
TGI [37]: > 100000 nM
TGI [38]: > 100000 nM
TGI [39]: 33500 nM
TGI [9]: > 100000 nM
TGI [10]: > 100000 nM
TGI [11]: > 100000 nM
TGI [40]: > 100000 nM
TGI [41]: > 100000 nM
TGI [42]: > 100000 nM
TGI [43]: > 100000 nM
TGI [44]: > 100000 nM
TGI [45]: 89700 nM
TGI [46]: > 100000 nM
TGI [12]: > 100000 nM
TGI [47]: > 100000 nM
TGI [14]: 31900 nM
TGI [15]: > 100000 nM
TGI [48]: > 100000 nM
TGI [16]: > 100000 nM
TGI [17]: > 100000 nM
TGI [49]: > 100000 nM
TGI [50]: > 100000 nM
TGI [18]: > 100000 nM
TGI [19]: > 100000 nM
TGI [51]: 41100 nM
TGI [52]: > 100000 nM
TGI [53]: > 100000 nM
